Like-named read-outs stand apart in the source and are kept apart here.
Legend:
[1] = target: human CB2 receptors (Homo sapiens (Human), UniProt P34972); assay: functional cAMP assay, CHO cells expressing human CB2; format: cell-based
Outline: (§1)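 Compound exposure lasted 30 min at 30 °C in IBMX (1 mM)-containing Krebs Ringer bicarbonate buffer, applied to human CB1- or CB2-expressing CHO cells. Lysates were read by time-resolved FRET cAMP detection, converted via cAMP standard curve (10 μM–0.13 nM), and EC50 values calculated.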

[2] = target: human CB1 receptors (Homo sapiens (Human), UniProt P21554); assay: functional cAMP assay, CHO cells expressing human CB1; format: cell-based; details: functional cAMP assay, CHO cells expressing human CB1
Sequence of human CB1 receptors (P21554 whole entry): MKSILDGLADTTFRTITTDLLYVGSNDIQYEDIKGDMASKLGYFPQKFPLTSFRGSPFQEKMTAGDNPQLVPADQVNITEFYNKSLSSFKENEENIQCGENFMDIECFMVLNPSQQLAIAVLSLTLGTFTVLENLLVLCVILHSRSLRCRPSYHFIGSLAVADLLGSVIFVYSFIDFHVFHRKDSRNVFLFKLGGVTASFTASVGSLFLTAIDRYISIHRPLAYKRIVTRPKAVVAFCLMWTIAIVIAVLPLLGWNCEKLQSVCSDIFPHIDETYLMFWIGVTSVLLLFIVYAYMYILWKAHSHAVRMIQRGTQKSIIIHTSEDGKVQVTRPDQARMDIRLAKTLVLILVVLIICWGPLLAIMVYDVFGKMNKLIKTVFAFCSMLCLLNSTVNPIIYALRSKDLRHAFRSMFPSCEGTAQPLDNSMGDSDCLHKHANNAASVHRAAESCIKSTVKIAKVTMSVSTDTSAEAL
Outline: as §1

Sequence of human CB2 receptors (P34972 whole entry): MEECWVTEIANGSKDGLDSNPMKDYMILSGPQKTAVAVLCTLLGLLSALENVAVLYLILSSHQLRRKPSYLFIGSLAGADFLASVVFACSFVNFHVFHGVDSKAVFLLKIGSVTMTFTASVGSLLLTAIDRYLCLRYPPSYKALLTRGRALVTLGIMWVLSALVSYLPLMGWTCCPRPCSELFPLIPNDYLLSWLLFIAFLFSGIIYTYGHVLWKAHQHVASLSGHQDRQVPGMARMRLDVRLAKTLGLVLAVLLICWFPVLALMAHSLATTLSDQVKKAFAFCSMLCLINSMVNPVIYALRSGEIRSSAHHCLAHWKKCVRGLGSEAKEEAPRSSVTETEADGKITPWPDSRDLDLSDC

| Compound | EC50 ([1]; Human CB2 EC50 (uM)) [µM] | EC50 ([2]; read-out: Human CB1 EC50) [µM] | EC50 ([2]; Human CB1 EC50 (uM)) [µM] | EC50 ([1]; read-out: Human CB2 EC50) [µM] |
| --- | --- | --- | --- | --- |
| Cc1nc(C(C)(CS(C)(=O)=O)NC(=O)c2cc(OCCF)c(C3CC3)cn2)no1 (single isomer, unassigned) [Example 280, 5-cyclopropyl-4-(2-fluoroethoxy)-N-[2-(5-methyl-1,2,4-oxadiazol-3-yl)-1-methylsulfonylpropan-2-yl]pyridine-2-carboxamide] | 0.0786 | > 10 | – | – |
| Cc1nc(C(C)(CS(C)(=O)=O)NC(=O)c2cc(OCC(F)F)c(C3CC3)cn2)no1 (single isomer, unassigned) [Example 283, 5-cyclopropyl-4-(2,2-difluoroethoxy)-N-(2-(5-methyl-1,2,4-oxadiazol-3-yl)-1-(methylsulfonyl)propan-2-yl)picolinamide] | 0.0533 | – | > 10 | – |
| Cc1nc(C(C)(CS(C)(=O)=O)NC(=O)c2cc(OCC(F)F)c(C3CC3)cn2)no1 (single isomer, unassigned) [Example 284, 5-cyclopropyl-4-(2,2-difluoroethoxy)-N-(2-(5-methyl-1,2,4-oxadiazol-3-yl)-1-(methylsulfonyl)propan-2-yl)picolinamide] | 0.0453 | > 10 | – | – |
| Cc1nc(C(C)(CC2CC2)NC(=O)c2cc(OC(C)CF)c(C3CC3)cn2)no1 (single isomer, unassigned) [Example 287, 5-cyclopropyl-N-(1-cyclopropyl-2-(5-methyl-1,2,4-oxadiazol-3-yl)propan-2-yl)-4-(1-fluoropropan-2-yloxy)picolinamide] | 0.0014 | – | > 10 | – |
| Cc1nc(C(C)(CC2CC2)NC(=O)c2cc(OC(C)CF)c(C3CC3)cn2)no1 (single isomer, unassigned) [Example 288, 5-cyclopropyl-N-(1-cyclopropyl-2-(5-methyl-1,2,4-oxadiazol-3-yl)propan-2-yl)-4-(1-fluoropropan-2-yloxy)picolinamide] | 0.0008 | > 10 | – | – |
| Cc1nc(C(C)(CC2CC2)NC(=O)c2cc(OC(C)CF)c(C3CC3)cn2)no1 (single isomer, unassigned) [Example 289, 5-cyclopropyl-N-(1-cyclopropyl-2-(5-methyl-1,2,4-oxadiazol-3-yl)propan-2-yl)-4-(1-fluoropropan-2-yloxy)picolinamide] | – | > 10 | – | 0.001 |
| Cc1nc(C(C)(CC2CC2)NC(=O)c2cc(OC(C)CF)c(C3CC3)cn2)no1 (single isomer, unassigned) [Example 290, 5-cyclopropyl-N-(1-cyclopropyl-2-(5-methyl-1,2,4-oxadiazol-3-yl)propan-2-yl)-4-(1-fluoropropan-2-yloxy)picolinamide] | – | > 10 | – | 0.0006 |
| CC(CF)Oc1cc(C(=O)NC2(CC(N)=O)CS(=O)(=O)C2)ncc1C1CC1 (single isomer, unassigned) [Example 291, N-[3-(2-amino-2-oxoethyl)-1,1-dioxothietan-3-yl]-5-cyclopropyl-4-[1-fluoropropan-2-yl]oxypyridine-2-carboxamide] | 0.0003 | – | > 10 | – |
| CC(CF)Oc1cc(C(=O)NC2(CC(N)=O)CS(=O)(=O)C2)ncc1C1CC1 (single isomer, unassigned) [Example 292, N-[3-(2-amino-2-oxoethyl)-1,1-dioxothietan-3-yl]-5-cyclopropyl-4-[1-fluoropropan-2-yl]oxypyridine-2-carboxamide] | 0.0019 | > 10 | – | – |
| Cc1nc(C(C)(CS(C)(=O)=O)NC(=O)c2cc(OC(C)CF)c(C3CC3)cn2)no1 (single isomer, unassigned) [Example 295, 5-cyclopropyl-4-(1-fluoropropan-2-yloxy)-N-(2-(5-methyl-1,2,4-oxadiazol-3-yl)-1-(methylsulfonyl)propan-2-yl)picolinamide] | 0.0024 | – | > 10 | – |
| Cc1nc(C(C)(CS(C)(=O)=O)NC(=O)c2cc(OC(C)CF)c(C3CC3)cn2)no1 (single isomer, unassigned) [Example 296, 5-cyclopropyl-4-(1-fluoropropan-2-yloxy)-N-(2-(5-methyl-1,2,4-oxadiazol-3-yl)-1-(methylsulfonyl)propan-2-yl)picolinamide] | 0.0422 | > 10 | – | – |
